Laboratory results reported in article PMC2677626, “How β-Lactam Antibiotics Enter Bacteria: A Dialogue with the Porins” (PLoS ONE, 2009).

Biological target: T1, OmpC (Escherichia coli, UniProt P06996)
T1 construct: OmpC porin in planar lipid bilayer
Assay: single-channel ion current blockage in planar lipid bilayer
Format: binding
Settings: data not shown in paper; same pattern as Omp36

T1 sequence (P06996 22-367): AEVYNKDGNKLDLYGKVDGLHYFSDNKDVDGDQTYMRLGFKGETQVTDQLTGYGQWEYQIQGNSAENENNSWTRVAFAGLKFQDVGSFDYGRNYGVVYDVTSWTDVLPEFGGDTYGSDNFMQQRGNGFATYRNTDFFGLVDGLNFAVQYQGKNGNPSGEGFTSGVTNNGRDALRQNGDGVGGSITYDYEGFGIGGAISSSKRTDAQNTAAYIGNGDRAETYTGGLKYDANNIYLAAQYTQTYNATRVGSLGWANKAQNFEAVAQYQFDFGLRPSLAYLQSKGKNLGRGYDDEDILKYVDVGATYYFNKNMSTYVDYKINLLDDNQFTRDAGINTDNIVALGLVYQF

SMILES | single-channel ion current blockage in planar lipid bilayer
CO/N=C(\C(=O)N[C@@H]1C(=O)N2C(C(=O)[O-])=C(C[N+]3(C)CCCC3)CS[C@H]12)c1csc(N)n1 [cefepime] | showed the same pattern of interaction with ertapenem, cefepime, ceftazidime and ampicillin (data not shown)
C[C@@H](O)[C@H]1C(=O)N2C(C(=O)O)=C(S[C@@H]3CN[C@H](C(=O)Nc4cccc(C(=O)O)c4)C3)[C@H](C)[C@H]12 [ertapenem] | showed the same pattern of interaction with ertapenem, cefepime, ceftazidime and ampicillin (data not shown)
